Experimental findings from US8697725B2, “Tetrahydroquinoline derivatives and their pharmaceutical use” (GlaxoSmithKline LLC, priority 2009, dated 2014) are described below.

For experiment [1], the system named is TNFα. The experiment can be described thus: LPS Stimulated Whole Blood Measuring TNFα Levels Assay. Particulars: 24 h, LPS 200 ng/ml, immunoassay, read-out: pIC50, TNFα levels in LPS stimulated whole blood (converted). The experiment is classed as cell-based. Here is the method:
LPS Stimulated Whole Blood Measuring TNFα Levels Assay
Activation of monocytic cells by agonists of toll-like receptors such as bacterial lipopolysaccharide (LPS) results in production of key inflammatory mediators including TNFα. Such pathways are widely considered to be central to the pathophysiology of a range of auto-immune and inflammatory disorders.
Compounds to be tested are diluted to give a range of appropriate concentrations and 1 ul of the dilution stocks is added to wells of a 96 plate. Following addition of whole blood (130 ul) the plates are incubated at 37 degrees (5% CO2) for 30 min before the addition of 10 ul of 2.8 ug/ml lipopolysaccharides (LPS), diluted in complete RPMI 1640 (final concentration=200 ng/ml), to give a total volume of 140 ul per well. After further incubation for 24 hours at 37 degrees, 140 ul of PBS are added to each well. The plates are sealed, shaken for 10 minutes and then centrifuged (2500 rpm×10 min). 100 ul of the supernatant are removed and TNFα levels assayed by immunoassay (typically by MesoScale Discovery technology) either immediately or following storage at −20 degrees. Dose response curves for each compound was generated from the data and an IC50 value was calculated.

In experiment [2] the test system is IL-6. The experiment can be described thus: Measurement of LPS Induced IL-6 Secretion from Whole Blood. Particulars: 24 h, LPS 200 ng/ml, immunoassay, read-out: pIC50, LPS induced IL-6 secretion from whole blood (converted). Type of experiment: cell-based. Here is the method:
Measurement of LPS Induced IL-6 Secretion from Whole Blood
Activation of monocytic cells by agonists of toll-like receptors such as bacterial lipopolysaccharide (LPS) results in production of key inflammatory mediators including IL-6. Such pathways are widely considered to be central to the pathophysiology of a range of auto-immune and inflammatory disorders.
Compounds to be tested are diluted to give a range of appropriate concentrations of which 1 ul of the diluted stocks is added to a 96 well plate. Following addition of whole blood (130 ul) the plates are incubated at 37 degrees (5% CO2) for 30 min before the addition of 10 ul of 2.8 ug/ml LPS, diluted in complete RPMI 1640 (final concentration=200 ng/ml), to give a total volume of 140 ul per well. After further incubation for 24 hours at 37 degrees, 140 ul of PBS are added to each well. The plates are sealed, shaken for 10 minutes and then centrifuged (2500 rpm×10 min). 100 ul of the supernatant are removed and IL-6 levels assayed by immunoassay (typically by MesoScale Discovery technology) either immediately or following storage at −20 degrees. Concentration response curves for each compound was generated from the data and an IC50 value was calculated.

Where a name gives a salt, the structure may show the parent alone. Where only a bound is given, the exact number is not on record here.

On to `CC(=O)N1c2ccc(-c3ccc(N4CCN(C(=O)OC(C)(C)C)CC4)nc3)cc2[C@@H](NC(=O)OC(C)C)C[C@H]1C` (racemic) [Example 8, 1,1-dimethylethyl 4-{5-[(cis)-1-acetyl-2-methyl-4-({[(1-methylethyl)oxy]carbonyl}amino)-1,2,3,4-tetrahydro-6-quinolinyl]-2-pyridinyl}-1-piperazinecarboxylate], for which the IC50 in experiment [1] was not above 6.31 µM.

Regarding `CC(=O)N1c2ccc(-c3ccc(N4CCOCC4)nc3)cc2[C@@H](NC(=O)OC(C)C)C[C@H]1C` (racemic) [Example 10, 1-methylethyl {(cis)-1-acetyl-2-methyl-6-[6-(4-morpholinyl)-3-pyridinyl]-1,2,3,4-tetrahydro-4-quinolinyl}carbamate hydrochloride], the IC50 in experiment [1] is not above 6.31 µM.

Turning to `CC(=O)N1c2ccc(-c3ccc(N4CCCCC4)nc3)cc2[C@@H](NC(=O)OC(C)C)C[C@H]1C` (racemic) [Example 11, 1-methylethyl {(cis)-1-acetyl-2-methyl-6-[6-(1-piperidinyl)-3-pyridinyl]-1,2,3,4-tetrahydro-4-quinolinyl}carbamate hydrochloride], the IC50 in experiment [1] is not above 6.31 µM.

For `CC(=O)N1c2ccc(-c3ccc(CN4CCCCC4)cc3)cc2[C@@H](NC(=O)OC(C)(C)C)C[C@H]1C` (racemic) [Example 17, 1,1-dimethylethyl {(cis)-1-acetyl-2-methyl-6-[4-(1-piperidinylmethyl)phenyl]-1,2,3,4-tetrahydro-4-quinolinyl}carbamate], in experiment [1], the IC50 is not above 6.31 µM.

In the case of `CC(=O)N1c2ccc(-c3cc(CN4CCCCC4)co3)cc2[C@@H](NC(=O)OC(C)C)C[C@H]1C` (racemic) [Example 18, 1-methylethyl {(cis)-1-acetyl-2-methyl-6-[4-(1-piperidinylmethyl)-2-furanyl]-1,2,3,4-tetrahydro-4-quinolinyl}carbamate], in experiment [1], the IC50 was not above 6.31 µM.

For `CC(=O)N1c2ccc(-c3ccc(CN4CCCCC4)o3)cc2[C@@H](NC(=O)OC(C)C)C[C@H]1C` (racemic) [Example 22, 1-methylethyl {(cis)-1-acetyl-2-methyl-6-[5-(1-piperidinylmethyl)-2-furanyl]-1,2,3,4-tetrahydro-4-quinolinyl}carbamate (formic acid salt)], the IC50 in experiment [1] was not above 6.31 µM.

Consider `CC(=O)N1c2ccc(-c3ccn[nH]3)cc2[C@@H](NC(=O)OC(C)C)C[C@H]1C` (racemic) [Example 31, 1-methylethyl[(cis)-1-acetyl-2-methyl-6-(1H-pyrazol-5-yl)-1,2,3,4-tetrahydro-4-quinolinyl]carbamate], for which, in experiment [1], the IC50 was not above 6.31 µM.

Consider `CC(=O)N1c2ccc(-c3sc(C)nc3C)cc2[C@@H](NC(=O)OC(C)C)C[C@H]1C` (racemic) [Example 32, 1-methylethyl[(cis)-1-acetyl-6-(2,4-dimethyl-1,3-thiazol-5-yl)-2-methyl-1,2,3,4-tetrahydro-4-quinolinyl]carbamate], for which the IC50 in experiment [1] was not above 6.31 µM.

For `CC(=O)N1c2ccc(Br)cc2[C@@H](NC(=O)OC2CCC2)C[C@H]1C` (racemic) [Example 33, cyclobutyl[(cis)-1-acetyl-6-bromo-2-methyl-1,2,3,4-tetrahydro-4-quinolinyl]carbamate], the IC50 in experiment [1] is not above 6.31 µM.

Take `CC(=O)N1c2ccc(-c3ccc(CN4CCCCC4)cc3)cc2[C@@H](NC(=O)OC2CCCC2)C[C@H]1C` (racemic) [Example 36, cyclopentyl {(cis)-1-acetyl-2-methyl-6-[4-(1-piperidinylmethyl)phenyl]-1,2,3,4-tetrahydro-4-quinolinyl}carbamate]: the IC50 in experiment [1] is not above 6.31 µM.

Consider `CC(=O)N1c2ccc(-c3cnn(CCN4CCC(N)CC4)c3)cc2[C@@H](NC(=O)OC(C)C)C[C@H]1C` (racemic) [Example 39, 1-methylethyl((cis)-1-acetyl-6-{1-[2-(4-amino-1-piperidinyl)ethyl]-1H-pyrazol-4-yl}-2-methyl-1,2,3,4-tetrahydro-4-quinolinyl)carbamate dihydrochloride], for which, in experiment [1], the IC50 was not above 6.31 µM.

For the molecule `CC(=O)N1c2ccc(-c3csc(CN4CCCCC4)n3)cc2[C@@H](NC(=O)OC(C)C)C[C@H]1C` (racemic) [Example 41, 1-methylethyl {(cis)-1-acetyl-2-methyl-6-[2-(1-piperidinylmethyl)-1,3-thiazol-4-yl]-1,2,3,4-tetrahydro-4-quinolinyl}carbamate], the IC50 in experiment [1] was not above 6.31 µM.

For `CC(=O)N1c2ccc(-c3ccccc3C)cc2[C@H](NC(=O)OC(C)C)C[C@@H]1C` [Example 93, 1-Methylethyl[(2S,4R)-1-acetyl-2-methyl-6-(2-methylphenyl)-1,2,3,4-tetrahydro-4-quinolinyl]carbamate], in experiment [2], the IC50 was not above 31.6 µM.

With `CC(=O)N1c2ccc(-c3ccccc3)cc2[C@H](NC(=O)OC(C)C)C[C@@H]1C` [Example 94, 1-Methylethyl[(2S,4R)-1-acetyl-2-methyl-6-phenyl-1,2,3,4-tetrahydro-4-quinolinyl]carbamate], the IC50 in experiment [2] was not above 31.6 µM.

As for `CC(=O)N1c2ccc(-c3ccc(CCO)cc3)cc2[C@H](NC(=O)OC(C)C)C[C@@H]1C` [Example 95, 1-Methylethyl {(2S,4R)-1-acetyl-6-[4-(2-hydroxyethyl)phenyl]-2-methyl-1,2,3,4-tetrahydro-4-quinolinyl}carbamate], the IC50 in experiment [2] is not above 31.6 µM.

As to `CC(=O)N1c2ccc(-c3ccc(CCN)cc3)cc2[C@H](NC(=O)OC(C)C)C[C@@H]1C` [Example 96, 1-Methylethyl {(2S,4R)-1-acetyl-6-[4-(2-aminoethyl)phenyl]-2-methyl-1,2,3,4-tetrahydro-4-quinolinyl}carbamate hydrochloride], the IC50 in experiment [2] is not above 31.6 µM.

For the molecule `CC(=O)N1c2ccc(-c3ccccn3)cc2[C@H](NC(=O)OC(C)C)C[C@@H]1C` [Example 101, 1-Methylethyl[(2S,4R)-1-acetyl-2-methyl-6-(2-pyridinyl)-1,2,3,4-tetrahydro-4-quinolinyl]carbamate], the IC50 in experiment [2] was not above 31.6 µM.

Turning to `CC(=O)N1c2ccc(-c3ccc(CCC(=O)O)cc3)cc2[C@H](NC(=O)OC(C)C)C[C@@H]1C` [Example 102, 3-{4-[(2S,4R)-1-Acetyl-2-methyl-4-({[(1-methylethyl)oxy]carbonyl}amino)-1,2,3,4-tetrahydro-6-quinolinyl]phenyl}propanoic acid], in experiment [2], the IC50 was not above 31.6 µM.

For the molecule `COCn1cc(-c2ccc3c(c2)[C@H](NC(=O)OC(C)C)C[C@H](C)N3C(C)=O)cn1` [Example 106, 1-Methylethyl((2S,4R)-1-acetyl-2-methyl-6-{1-[(methyloxy)methyl]-1H-pyrazol-4-yl}-1,2,3,4-tetrahydro-4-quinolinyl)carbamate], the IC50 in experiment [2] is not above 31.6 µM.

With `CC(=O)N1c2ccc(-c3cnn(CC(C)(C)O)c3)cc2[C@H](NC(=O)OC(C)C)C[C@@H]1C` [Example 109, 1-Methylethyl {(2S,4R)-1-acetyl-6-[1-(2-hydroxy-2-methylpropyl)-1H-pyrazol-4-yl]-2-methyl-1,2,3,4-tetrahydro-4-quinolinyl}carbamate], the IC50 in experiment [2] was not above 31.6 µM.

In the case of `CC(=O)N1c2ccc(-c3ccc(N)nc3)cc2[C@H](NC(=O)OC(C)C)C[C@@H]1C` [Example 110, 1-methylethyl[(2S,4R)-1-acetyl-6-(6-amino-3-pyridinyl)-2-methyl-1,2,3,4-tetrahydro-4-quinolinyl]carbamate], the IC50 in experiment [2] was not above 31.6 µM.
